Reference: patent publication US8765433B2, “Alcohol dehydrogenases (ADH) useful for fermentive production of lower alkyl alcohols” (priority 2009, dated 2014)

Legend:
Assay type in all cases: biochemical
[1] = biological target: Achromobacter xylosoxidans SadB (SadB), SEQ ID NO: 26; test: isobutyraldehyde reduction kinetics (A340, initial rates)
Excerpt: (§1) This example describes preparation of ADH-gene constructs for over-expression/purification and measurement of enzyme activities using a time-course assay. Horse-liver ADH (HLADH; A-6128) was purchased from Sigma. Achromobacter xylosoxidans SadB (SadB), Saccharomyces cerevisiae ADH6 (ScADH6) and ADH7 (ScADH7), Entamoeba histolytica ADH1 (EhADH1), Bos Taurus Aldehyde Reductase (BtARD), Beijerinckia indica subsp. Indica ATCC 9039 (BiADH), Clostridium beijerinckii ADH (CbADH), Rana perezi ADH8 (RpADH8), Rattus norvegicus ADH1 (RnADH1), Thermus sp. ATN1 ADH (TADH), Phenylobacterium zucineum HLK1 ADH (PzADH), Methylocella silvestris BL2 ADH (MsADH), Acinetobacter baumannii AYE ADH (AbADH), Geobacillus sp. WCH70 ADH (GbADH), Vanderwaltozyma polyspora DSM 70294 ADH (VpADH), Mucor circinelloides ADH (McADH), and Rhodococcus erythropolis PR4ADH (ReADH) were the candidates for which subclones were prepared for protein expression and purification.
(§2) As a routine practice, the crude extracts and purified proteins were assayed for butanol oxidation activity, in order to ensure that the recombinant proteins were active throughout the purification process. […] Alcohol oxidation activities were carried out in 50 mM sodium phosphate buffer at pH 8.8 and aldehyde reduction reactions were assayed in 190 mM potassium phosphate buffer at pH 7.0. Depending on the nature of reaction being carried out, the enzyme and cofactor stocks were diluted in the reaction buffers at the respective pHs. Either buffer or cell extract prepared from the proprietary E. coli strain (with no ADH plasmid) was used as the negative control for assays with purified protein and cell-free extracts, respectively.
(§3) Kinetic constants of the ADH enzymes were calculated and compared to identify those candidate ADH enzymes with the most desirable properties for the conversion of isobutyraldehyde to isobutanol in the last step of the engineered pathway for isobutanol production. The assays for determining the kinetic constants were carried out using initial rates from the assays described above. […] The concentration of a given enzyme was such that it was conducive for the measurement of initial velocities over a 1-min time course. For each enzyme, Michaelis-Menten plots were generated with a broad range of substrate concentrations. Rough estimates of KM were obtained, based on which the assays were redesigned so as to use substrate concentrations in the range 0.5 to 10 times the KM value, to be able to obtain the appropriate kinetic constants. […] Reactions with isobutanol substrate were performed at 30° C. in 50 mM Sodium phosphate buffer, pH 8.8, containing 7.5 mM NAD. The Enzyme kinetics module (Version 1.3) of SigmaPlot 11 (Systat Software, Inc.) was used to fit data to Michaelis-Menten equations and calculate the kinetic constants. The kcat/KM is derived from the individual numbers of kcat and KM and not an experimentally determined value.
(§4) For those enzymes marked with an asterisk in Table 7, at least 3 assays were performed with separate preparations of the enzyme. All other numbers are values from either one assay or are averages from 2 assays performed with the same enzyme sample.

[2] = biological target: T1, Saccharomyces cerevisiae ADH6 (ScADH6), SEQ ID NO: 22 (Saccharomyces cerevisiae, UniProt Q04894); test: as above; conditions: relative to SadB
T1 sequence (Q04894 1-360): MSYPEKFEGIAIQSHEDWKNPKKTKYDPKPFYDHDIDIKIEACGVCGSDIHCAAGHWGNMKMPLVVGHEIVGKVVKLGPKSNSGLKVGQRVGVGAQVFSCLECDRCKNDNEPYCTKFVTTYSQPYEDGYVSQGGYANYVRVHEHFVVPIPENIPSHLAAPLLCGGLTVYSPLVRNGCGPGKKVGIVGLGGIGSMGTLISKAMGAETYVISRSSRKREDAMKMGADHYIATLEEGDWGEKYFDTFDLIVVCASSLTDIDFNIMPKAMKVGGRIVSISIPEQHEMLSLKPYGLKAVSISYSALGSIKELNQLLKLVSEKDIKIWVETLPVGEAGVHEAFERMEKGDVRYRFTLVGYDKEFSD
Excerpt: as §1, §2, §3, §4

[3] = biological target: T2, horse liver ADH (HLADH), SEQ ID NO: 21 (Equus caballus, UniProt P00327); test: as above; conditions: relative to SadB
T2 construct: purchased Sigma A-6128
Excerpt: as §1, §2, §3, §4

[4] = biological target: T3, Saccharomyces cerevisiae ADH7 (ScADH7), SEQ ID NO: 23 (Saccharomyces cerevisiae, UniProt P25377); test: as above
T3 sequence (P25377 1-361): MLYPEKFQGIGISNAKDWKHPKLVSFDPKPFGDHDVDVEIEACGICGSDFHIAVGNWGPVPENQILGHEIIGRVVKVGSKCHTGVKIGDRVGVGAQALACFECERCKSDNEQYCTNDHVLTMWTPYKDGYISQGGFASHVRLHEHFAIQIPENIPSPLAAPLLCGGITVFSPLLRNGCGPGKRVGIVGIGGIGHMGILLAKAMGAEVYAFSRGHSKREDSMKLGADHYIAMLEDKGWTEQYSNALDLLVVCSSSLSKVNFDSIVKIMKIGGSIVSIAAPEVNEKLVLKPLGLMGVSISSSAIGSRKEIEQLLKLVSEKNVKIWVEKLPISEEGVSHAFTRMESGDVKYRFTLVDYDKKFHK
Excerpt: as §1, §2, §3, §4

[5] = biological target: T4, Beijerinckia indica subsp. Indica ATCC 9039 ADH (BiADH), SEQ ID NO: 31 (Beijerinckia indica, UniProt B2IGW3)
T4 sequence (B2IGW3 1-347): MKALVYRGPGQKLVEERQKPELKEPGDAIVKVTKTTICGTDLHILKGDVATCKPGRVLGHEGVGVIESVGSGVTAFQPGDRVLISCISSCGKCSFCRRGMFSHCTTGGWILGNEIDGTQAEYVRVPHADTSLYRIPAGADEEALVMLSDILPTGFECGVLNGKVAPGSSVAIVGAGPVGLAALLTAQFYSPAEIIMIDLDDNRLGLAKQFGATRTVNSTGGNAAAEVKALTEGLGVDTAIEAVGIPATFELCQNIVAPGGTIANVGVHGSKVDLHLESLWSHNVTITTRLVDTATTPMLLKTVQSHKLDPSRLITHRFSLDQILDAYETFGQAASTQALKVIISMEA
Excerpt: as §1, §2, §3, §4

T2 sequence (P00327 whole entry): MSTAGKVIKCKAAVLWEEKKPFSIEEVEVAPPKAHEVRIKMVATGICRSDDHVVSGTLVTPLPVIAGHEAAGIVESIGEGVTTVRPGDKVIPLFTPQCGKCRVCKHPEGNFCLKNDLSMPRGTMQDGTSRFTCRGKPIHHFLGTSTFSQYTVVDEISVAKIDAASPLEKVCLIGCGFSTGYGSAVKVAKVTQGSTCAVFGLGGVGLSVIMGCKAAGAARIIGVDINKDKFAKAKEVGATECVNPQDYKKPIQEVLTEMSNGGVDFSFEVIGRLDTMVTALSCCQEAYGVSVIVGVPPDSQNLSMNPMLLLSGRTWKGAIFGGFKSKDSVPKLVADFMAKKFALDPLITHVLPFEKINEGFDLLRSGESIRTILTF

## CC(C)CO [isobutanol, 2-methylpropan-1-ol]
[1]; reference (SadB itself)
  KI as a percentage of the same parameter for SadB: 100%
[2]
  KI as a percentage of the same parameter for SadB: 650%
[3]
  KI as a percentage of the same parameter for SadB: 1%
[4]; read-out: KI (Isobutanol)
  Ki: 88 mM
[4]; relative to SadB
  KI as a percentage of the same parameter for SadB: 49%
[5]; relative to SadB
  KI as a percentage of the same parameter for SadB: 20%

## CC(C)C=O [isobutyraldehyde]
[1]; 30° C., pH 7.0, 200 μM NADH, read-out: KM (Isobutanal)
  Km: 1000 µM
[1]; isobutyraldehyde reduction, 30° C., pH 7.0, 200 μM NADH
  kcat: 109 s⁻¹
[1]; reference (SadB itself)
  KM as a percentage of the same parameter for SadB: 100%
  kcat as a percentage of the same parameter for SadB: 100%
  kcat/KM as a percentage of the same parameter for SadB: 100%
[2]
  KM as a percentage of the same parameter for SadB: 60%
  kcat as a percentage of the same parameter for SadB: 43%
  kcat/KM as a percentage of the same parameter for SadB: 77%
[3]
  KM as a percentage of the same parameter for SadB: 10%
  kcat as a percentage of the same parameter for SadB: 7%
  kcat/KM as a percentage of the same parameter for SadB: 78%
[4]; relative to SadB
  KM as a percentage of the same parameter for SadB: 30%
  kcat as a percentage of the same parameter for SadB: 33%
  kcat/KM as a percentage of the same parameter for SadB: 114%
[5]; compared with SadB
  catalytic efficiency for isobutyraldehyde reduction, BiADH relative to SadB: ~12 times
[5]; relative to SadB
  KM as a percentage of the same parameter for SadB: 20%
  kcat as a percentage of the same parameter for SadB: 260%
  kcat/KM as a percentage of the same parameter for SadB: 1192%
